Converted amounts (≈) assume the structure as drawn. Read-outs that look alike come from different tables or passages of the source.
Legend:
Type in all cases: physicochemical
[1] = Physical stability measurements (XRPD, DSC, TGA)
Procedure: Testing conditions: 40° C., 60° C., 40° C./RH 75%, 60° C./RH 75%, light
Testing procedure: About 50 mg of a febuxostat form were weighed in glass vial for testing the physical stability and were stored under different conditions for 1 week and 2 weeks, separately. The same febuxostat form was stored at −20° C. as control. XRPD, DSC and TGA of each of the febuxostat forms were measured at the end of the first and second weeks.

[2] = Aqueous solubility measurements; settings: for solubility at 24 h: thermodynamic from solid, read-out: HPLC solubility; for pH: final pH of saturated solution
Procedure: Testing media: water, pH 1.2, 4.5, 6.8, 7.4 USP buffers, 0.01 N HCl, 0.1 N HCl, SGF, FaSSIF, FeSSIF.
The various testing media were prepared as follows:
pH 1.2 (USP): 50 mL of 0.2 M potassium chloride solution were placed in a 200 mL volumetric flask to which 85.0 mL of 0.2M hydrochloric acid solution were added followed by the addition of water to obtain the required volume.
pH 4.5 (USP): 50 mL of 0.2 M potassium biphthalate solution were placed in a 200 mL volumetric flask to which 8.8 mL of 0.2 M sodium hydroxide solution were added followed by the addition of water to obtain the required volume.
pH 6.8 (USP): 50 mL of 0.2 M monobasic potassium phosphate solution were placed in a 200 mL volumetric flask to which 22.4 mL of 0.2 M sodium hydroxide solution were added followed by the addition of water to obtain the required volume.
pH 7.4 (USP): 50 mL of 0.2 M monobasic potassium phosphate solution were placed in a 200 mL volumetric flask to which 39.1 mL of 0.2 M sodium hydroxide solution were added followed by the addition of water to obtain the required volume.
Simulated gastric fluid (SGF): 0.01 N HCl, 0.05% sodium lauryl sulfate, and 0.2% NaCl.
Fasted state simulated intestinal fluid (FaSSIF): 29 mM NaH2PO4, 3 mM Na taurocholate, 0.75 mM lecithin, 103 mM NaCl, and NaOH to obtain pH 6.5.
Fed state simulated intestinal fluid (FeSSIF): 144 mM acetic acid, 15 mM Na taurocholate, 3.75 mM lecithin, 204 mM NaCl, and NaOH to obtain pH 5.0.
Testing procedure: The tested febuxostat form was placed in each of the different media and was kept shaken for 24 hours at 25° C. Then, the saturated solution was filtered. The concentration of the febuxostat form in filtrate was determined by HPLC. The final pH was then tested. The test was conducted in duplication.

[3] = Hygroscopicity measurements (DVS sorption/desorption profiles); settings: 25° C.
Procedure: The sorption/desorption profiles of the forms of the present invention were tested at 25° C. under 0-90% relative humidity. The forms of the present invention were classified according to the following criteria: Deliquescent: Sufficient water is absorbed to form a liquid. […] Hygroscopic: Increase in mass is less than 15% and equal to or greater than 2%. Slightly hygroscopic: Increase in mass is less than 2% and equal to or greater than 0.2%. Non-hygroscopic: Increase in mass is less than 0.2%.

[4] = Bulk and tapped density measurements
Procedure: Bulk density testing: A febuxostat form in an amount which is sufficient to complete the test was passed through a 1.0 mm (No. 18) screen to break up agglomerates that may have formed during storage. The febuxostat form was then weighed (M) and the powder was added into a 10 mL graduated cylinder. The powder was carefully leveled without compacting, and the unsettled apparent volume, Vo, was read. The bulk density, in g per mL, was calculated by the formula: Bulk Density=M/Vo Tapped density testing: A febuxostat form in an amount which is sufficient to complete the test was passed through a 1.0 mm (No. 18) screen to break up agglomerates that may have formed during storage. The febuxostat form was then weighed and the powder was added into a 10 mL graduated cylinder. The powder was carefully leveled without compacting. The cylinder was tapped 500 times initially and the tapped volume, Va, was measured to the nearest graduated unit. The tapping was then repeated for additional 750 times and the tapped volume, Vb, was measured to the nearest graduated unit. If the difference between the two volumes was less than 2%, Vb was taken as the final tapped volume, Vf. The tapped density, in g per mL, was calculated by the formula: Tapped Density=M/Vf

[5] = media 0.01N HCl, 24 hours at 25° C.
[6] = media 0.1N HCl, 24 hours at 25° C.
[7] = media FaSSIF, 24 hours at 25° C.
[8] = media FeSSIF, 24 hours at 25° C.
[9] = media pH 1.2 (USP), 24 hours at 25° C.
[10] = media pH 4.5 (USP), 24 hours at 25° C.
[11] = media pH 6.8 (USP), 24 hours at 25° C.
[12] = media pH 7.4 (USP), 24 hours at 25° C.

## Cc1nc(-c2ccc(OCC(C)C)c(C#N)c2)sc1C(=O)O [Form V, 2-(3-cyano-4-isobutoxyphenyl)-4-methyl-5-thiazolecarboxylic acid]
[1]; 40° C., 60° C. and light at the end of the first and second week
  physical stability (XRPD, DSC, TGA): stable
[1]; 40° C./75% RH at the end of the first week
  physical stability (XRPD, DSC, TGA), form conversion: partially converted to form G
[1]; 40° C./75% RH at the end of the second week
  physical stability (XRPD, DSC, TGA), form conversion: completely converted to form G
[1]; 60° C./75% RH at the end of the first and second weeks
  physical stability (XRPD, DSC, TGA), form conversion: completely converted to form G
[2]; USP buffer pH 6.8, 25 °C, pH 6.8, aqueous buffer, media pH 6.8 (USP), 24 hours at 25° C.
  solubility at 24 h: 1120 µg/mL (≈ 3550 µM)
[2]; [5]
  pH: 2.003
  Visual solubility: few particles
[2]; [6]
  pH: 0.951
  Visual solubility: few particles
[2]; [7]
  pH: 6.384
  HPLC solubility: 513.37 µg/mL
  Visual solubility: Turbid + few particles
[2]; [8]
  pH: 4.995
  HPLC solubility: 180.61 µg/mL
  Visual solubility: Turbid + few particles
[2]; media SGF, 24 hours at 25° C.
  pH: 2.108
  Visual solubility: few particles
[2]; [9]
  pH: 1.157
  Visual solubility: few particles
[2]; [10]
  pH: 4.452
  HPLC solubility: 0.38 µg/mL
  Visual solubility: Turbid + few particles
[2]; [11]
  pH: 6.641
  Visual solubility: Turbid + few particles
[2]; [12]
  pH: 6.960
  HPLC solubility: 4317.12 µg/mL
  Visual solubility: Slightly turbid
[2]; media water, shaken 24 hours at 25° C.
  pH: 7.520
[2]; media water, 24 hours at 25° C.
  Visual solubility: Turbid + few particles
[2]; pH1.2 USP buffer, 0.01N HCl, 0.1N HCl and SGF
  aqueous solubility (in words): poor solubility
[2]; pH6.8 USP buffer, pH7.4 USP buffer, FaSSIF, FeSSIF
  aqueous solubility (in words): good solubility
[2]; water, 25 °C, water, media water, 24 hours at 25° C.
  solubility at 24 h: 54.9 µg/mL (≈ 173 µM)
[3]; 0-90% relative humidity
  Hygroscopicity classification: very hygroscopic
[3]; DVS, might be attributed to DMSO evaporation at high humidity
  weight loss after sorption-desorption cycle: about 10%
[3]; Target % P/P0 0.0
  Change in Mass (%) - ref, Desorption: −9.66%
  Change in Mass (%) - ref, Sorption: 0.00%
[3]; Target % P/P0 10.0
  Change in Mass (%) - ref, Desorption: −8.56%
  Change in Mass (%) - ref, Hysteresis: −8.64%
  Change in Mass (%) - ref, Sorption: 0.08%
[3]; Target % P/P0 20.0
  Change in Mass (%) - ref, Desorption: −8.49%
  Change in Mass (%) - ref, Hysteresis: −8.60%
  Change in Mass (%) - ref, Sorption: 0.12%
[3]; Target % P/P0 30.0
  Change in Mass (%) - ref, Desorption: −8.40%
  Change in Mass (%) - ref, Hysteresis: −8.53%
  Change in Mass (%) - ref, Sorption: 0.14%
[3]; Target % P/P0 40.0
  Change in Mass (%) - ref, Desorption: −8.30%
  Change in Mass (%) - ref, Hysteresis: −8.50%
  Change in Mass (%) - ref, Sorption: 0.20%
[3]; Target % P/P0 50.0
  Change in Mass (%) - ref, Desorption: 1.16%
  Change in Mass (%) - ref, Hysteresis: 0.93%
  Change in Mass (%) - ref, Sorption: 0.23%
[3]; Target % P/P0 60.0
  Change in Mass (%) - ref, Desorption: 7.34%
  Change in Mass (%) - ref, Hysteresis: 7.02%
  Change in Mass (%) - ref, Sorption: 0.31%
[3]; Target % P/P0 70.0
  Change in Mass (%) - ref, Desorption: 14.03%
  Change in Mass (%) - ref, Hysteresis: 12.45%
  Change in Mass (%) - ref, Sorption: 1.59%
[3]; Target % P/P0 80.0
  Change in Mass (%) - ref, Desorption: 23.42%
  Change in Mass (%) - ref, Hysteresis: 7.98%
  Change in Mass (%) - ref, Sorption: 15.44%
[3]; Target % P/P0 90.0
  Change in Mass (%) - ref, Desorption: 36.92%
  Change in Mass (%) - ref, Sorption: 36.92%
[4]
  Bulk Density: 0.444 g/mL
  Tapped Density: 0.637 g/mL
[4]; compared among forms V, IX, XI and form G
  bulk and tapped densities (in words): adequate bulk and tapped densities

Source: patent publication US20130225830A1, “POLYMORPHS OF FEBUXOSTAT” (MAPI PHARMA LIMITED, priority 2010, published 2013)
